Measured values taken from patent US20260022143A1, “Cyclic Peptide Inhibitors of IL-23” (JANSSEN PHARMACEUTICA NV, priority 2022, published 2026).
Starred links: 1 amine or outer side, 2 acyl side, 3 side chain; linkers in the order of their positions; H or OH if unused. Positions of bridges follow the written chain, without caps; N, C: chain ends. Non-standard residues stand in square brackets, D forms with d. Residues, ends and D or L forms follow the SMILES beside them. Groups on a side chain read outwards from the residue. *: point of attachment. Trp(7-(3-AcNH-Ph)) = CC(=O)Nc1cccc(-c2cccc3c(C[C@H](N)C(=O)O)c[nH]c23)c1; X51 = C[N+](C)(C)CCCc1cn(-c2ccc(C[C@H](N[*:1])C(=O)[*:2])cc2)nn1; Me3N+(CH2)2O(CH2)2O(CH2)2CO = C[N+](C)(C)CCOCCOCCC(=O)*; CH2CH2OCH2CH2OCH2CH2NMe3+ = C[N+](C)(C)CCOCCOCC*; Trp(7-Me) = Cc1cccc2c(C[C@H](N)C(=O)O)c[nH]c12; γGlu = O=C(O)[C@H](CCC(=O)[*:2])N[*:1]; 2Nal = N[C@@H](Cc1ccc2ccccc2c1)C(=O)O; AEF = NCCOc1ccc(C[C@H](N)C(=O)O)cc1; dNMeY = CN[C@H](Cc1ccc(O)cc1)C(=O)O; 3Pal = N[C@@H](Cc1cccnc1)C(=O)O; Myristoyl = CCCCCCCCCCCCCC(=O)*; Lys(Me) = CNCCCC[C@H](N)C(=O)O; Pen = CC(C)(S)[C@H](N)C(=O)O; αMeK = C[C@](N)(CCCCN)C(=O)O; X66 = C[N+]1(CCC*)CCOCC1; Thp = NC1(C(=O)O)CCOCC1; X3 = C[N+](C)(C)CCCCC*; AEEA = NCCOCCOCC(=O)O; Sar = CNCC(=O)O

Experiment: Exposed Polar Surface Area (EPSA)
Format: physicochemical
Details: SFC on Chirex 3014 column; sample 1 mM DMSO stock; read-out: EPSA
Outline: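 EPSA, in Å^2, is read from SFC retention time through a linear relationship established with eight calibration standards. Separation uses a Chirex 3014 stationary phase, 35 °C, 14 MPa back pressure, and a 5–60% methanol/ammonium formate modifier gradient in CO2.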

EPSA [A^2]	SMILES
163	CC(=O)NCCCC[C@@H]1NC(=O)[C@H](Cc2c[nH]c3c(-c4cccc(NC(C)=O)c4)cccc23)NC(=O)[C@H]([C@@H](C)O)NC(=O)[C@H](CC(N)=O)NC(=O)[C@@H](NC(C)=O)C(C)(C)SSC(C)(C)[C@@H](C(=O)N[C@@H](Cc2ccc(OCCCCC[N+](C)(C)C)cc2)C(=O)N[C@@H](Cc2ccc3ccccc3c2)C(=O)NC2(C(=O)N[C@@H](CCCCNC(C)=O)C(=O)N[C@@H](CC(N)=O)C(=O)N[C@@H](Cc3cccnc3)C(=O)N(C)CC(N)=O)CCOCC2)NC1=O [compound 452, MeCO-Pen(3)-N-T-7(3NAcPh)W-K(Ac)-Pen(3)-TMAPF-2Nal-THP-K(Ac)-N-3Pya-Sar-CONH2] (Ac-[Pen]NT[Trp(7-(3-AcNH-Ph))]K(Ac)[Pen]Y(X3)[2Nal][Thp]K(Ac)N[3Pal][Sar]-NH2; disulfide 1-6)
170	CC(=O)NCCCC[C@@H]1NC(=O)[C@H](Cc2c[nH]c3c(C)cccc23)NC(=O)[C@H]([C@@H](C)O)NC(=O)[C@H](CC(N)=O)NC(=O)[C@@H](NC(=O)CCOCCOCC[N+](C)(C)C)C(C)(C)SSC(C)(C)[C@@H](C(=O)N[C@@H](Cc2ccc(-n3cc(CCC[N+](C)(C)C)nn3)cc2)C(=O)N[C@@H](Cc2ccc3ccccc3c2)C(=O)NC2(C(=O)N[C@@H](CCCCNC(C)=O)C(=O)N[C@@H](CC(N)=O)C(=O)N[C@@H](Cc3cccnc3)C(=O)N(C)CC(N)=O)CCOCC2)NC1=O [compound 420, cPEG3aCO-Pen(3)-N-T-7MeW-K(Ac)-Pen(3)-F(4TzlTMA3)-2Nal-THP-K(Ac)-N-3Pya-Sar-CONH2] ({Me3N+(CH2)2O(CH2)2O(CH2)2CO}-[Pen]NT[Trp(7-Me)]K(Ac)[Pen][X51][2Nal][Thp]K(Ac)N[3Pal][Sar]-NH2; disulfide 1-6)
179	CC(=O)NCCCC[C@@H]1NC(=O)[C@H](Cc2c[nH]c3c(C)cccc23)NC(=O)[C@H]([C@@H](C)O)NC(=O)[C@H](CC(N)=O)NC(=O)[C@@H](NC(=O)CCOCCOCC[N+](C)(C)C)C(C)(C)SSC(C)(C)[C@@H](C(=O)N[C@@H](Cc2ccc(OCCCCC[N+](C)(C)C)cc2)C(=O)N[C@@H](Cc2ccc3ccccc3c2)C(=O)NC2(C(=O)N[C@@H](CCC(=O)O)C(=O)N[C@@H](CC(N)=O)C(=O)N[C@@H](Cc3cncc(C)c3)C(=O)N(C)CC(N)=O)CCOCC2)NC1=O [compound 505, cPEG3aCO-Pen(3)-N-T-7MeW-K(Ac)-Pen(3)-TMAPF-2Nal-THP-E-N-5MePyridinAla-Sar-CONH2]
171	CC(=O)NCCCC[C@@H]1NC(=O)[C@H](Cc2c[nH]c3c(C)cccc23)NC(=O)[C@H]([C@@H](C)O)NC(=O)[C@H](CC(N)=O)NC(=O)[C@@H](NC(C)=O)C(C)(C)SSC(C)(C)[C@@H](C(=O)N[C@@H](Cc2ccc(OCCN)cc2)C(=O)N[C@@H](Cc2ccc3ccccc3c2)C(=O)N[C@@](C)(CCCCN)C(=O)N[C@@H](CCCCNC(C)=O)C(=O)N[C@@H](CC(N)=O)C(=O)N[C@H](CO)C(=O)N(C)[C@H](Cc2ccc(O)cc2)C(N)=O)NC1=O [compound 19, MeCO-Pen(3)-N-T-7MeW-K(Ac)-Pen(3)-AEF-2Nal-aMeK-K(Ac)-N-s-NMeDTyr-CONH2] (Ac-[Pen]NT[Trp(7-Me)]K(Ac)[Pen][AEF][2Nal][αMeK]K(Ac)N[dS][dNMeY]-NH2; disulfide 1-6)
153	CC(=O)N(C)CCCC[C@@H]1NC(=O)[C@H](Cc2c[nH]c3c(C)cccc23)NC(=O)[C@H]([C@@H](C)O)NC(=O)[C@H](CC(=O)N(C)C)NC(=O)[C@@H](NC(=O)CCOCCOCC[N+](C)(C)C)C(C)(C)SSC(C)(C)[C@@H](C(=O)N[C@@H](Cc2ccc(OCCC[N+]3(C)CCOCC3)cc2)C(=O)N[C@@H](Cc2ccc3ccccc3c2)C(=O)NC2(C(=O)N[C@@H](CCCCN(C)C(C)=O)C(=O)N[C@@H](CC(N)=O)C(=O)N[C@@H](Cc3cccnc3)C(=O)N(C)CC(=O)N(C)C)CCOCC2)NC1=O [compound 274, cPEG3aCO-Pen(3)-N(N(Me)2)-T-7MeW-K(NMeac)-Pen(3)-MMoPF-2Nal-THP-K(NMeAc)-N-3Pya-Sar-CON(Me)2] ({Me3N+(CH2)2O(CH2)2O(CH2)2CO}-[Pen]D(NMe2)T[Trp(7-Me)][Lys(Me)](Ac)[Pen]Y(X66)[2Nal][Thp][Lys(Me)](Ac)N[3Pal][Sar]-NMe2; disulfide 1-6)
166	CC(=O)NCCCC[C@@H]1NC(=O)[C@H](Cc2c[nH]c3c(C)cccc23)NC(=O)[C@H]([C@@H](C)O)NC(=O)[C@H](CC(N)=O)NC(=O)[C@@H](NC(C)=O)C(C)(C)SSC(C)(C)[C@@H](C(=O)N[C@@H](Cc2ccc(OCC3CCC([N+](C)(C)C)CC3)cc2)C(=O)N[C@@H](Cc2ccc3ccccc3c2)C(=O)NC2(C(=O)N[C@@H](CCCCNC(C)=O)C(=O)N[C@@H](CC(N)=O)C(=O)N[C@@H](Cc3cccnc3)C(=O)N(C)CC(N)=O)CCOCC2)NC1=O (single isomer, unassigned) [compound 530, MeCO-Pen(3)-N-T-7MeW-K(Ac)-Pen(3)-ACHMF(S*, S*)-2Nal-THP-K(Ac)-N-3Pya-Sar-CONH2]
147	CC(=O)NCCCC[C@@H]1NC(=O)[C@H](Cc2c[nH]c3c(C)cccc23)NC(=O)[C@H]([C@@H](C)O)NC(=O)[C@H](CC(N)=O)NC(=O)[C@@H](NC(=O)CCOCCOCC[N+](C)(C)C)C(C)(C)SSC(C)(C)[C@@H](C(=O)N[C@@H](Cc2ccc(OCCOCCOCC[N+](C)(C)C)cc2)C(=O)N[C@@H](Cc2ccc3ccccc3c2)C(=O)NC2(C(=O)N[C@@H](CCCCNC(C)=O)C(=O)N[C@@H](CC(N)=O)C(=O)N[C@@H](Cc3cccnc3)C(=O)N(C)CC(N)=O)CCOCC2)NC1=O [compound 195, cPEG3aCO-Pen(3)-N-T-7MeW-K(Ac)-Pen(3)-APEG3F-2Nal-THP-K(Ac)-N-3Pya-Sar-CONH2] ({Me3N+(CH2)2O(CH2)2O(CH2)2CO}-[Pen]NT[Trp(7-Me)]K(Ac)[Pen]Y(CH2CH2OCH2CH2OCH2CH2NMe3+)[2Nal][Thp]K(Ac)N[3Pal][Sar]-NH2; disulfide 1-6)
157	CCCCCCCCCCCCCC(=O)N[C@@H](CCC(=O)NCCOCCOCC(=O)NCCOCCOCC(=O)NCCCC[C@@H]1NC(=O)[C@H](Cc2c[nH]c3c(C)cccc23)NC(=O)[C@H]([C@@H](C)O)NC(=O)[C@H](CC(=O)N(C)C)NC(=O)[C@@H](NC(=O)CCOCCOCC[N+](C)(C)C)C(C)(C)SSC(C)(C)[C@@H](C(=O)N[C@@H](Cc2ccc(OCCCCC[N+](C)(C)C)cc2)C(=O)N[C@@H](Cc2ccc3ccccc3c2)C(=O)NC2(C(=O)N[C@@H](CCCCN(C)C(C)=O)C(=O)N[C@@H](CC(N)=O)C(=O)N[C@@H](Cc3cccnc3)C(=O)N(C)CC(=O)N(C)C)CCOCC2)NC1=O)C(=O)O [compound 399, cPEG3aCO-Pen(3)-N(N(Me)2)-T-7MeW-K(PEG2PEG2gEC14)-Pen(3)-TMAPF-2Nal-THP-K(NMeAc)-N-3Pya-Sar-CON(Me)2] ({Me3N+(CH2)2O(CH2)2O(CH2)2CO}-[Pen]D(NMe2)T[Trp(7-Me)]K([AEEA-AEEA-γGlu-Myristoyl])[Pen]Y(X3)[2Nal][Thp][Lys(Me)](Ac)N[3Pal][Sar]-NMe2; disulfide 1-6)
168	CC(=O)NCCCC[C@@H]1NC(=O)[C@H](Cc2c[nH]c3c(C)cccc23)NC(=O)[C@H]([C@@H](C)O)NC(=O)[C@H](CC(N)=O)NC(=O)[C@@H](NC(C)=O)C(C)(C)SSC(C)(C)[C@@H](C(=O)N[C@@H](Cc2ccc(OCCN)cc2)C(=O)N[C@@H](Cc2ccc3ccccc3c2)C(=O)N[C@@](C)(CCCCN)C(=O)N[C@@H](CCCCNC(C)=O)C(=O)N[C@@H](CC(N)=O)C(=O)N[C@@H](C(=O)N(C)[C@H](Cc2ccc(O)cc2)C(N)=O)[C@H](C)O)NC1=O [compound 15, MeCO-Pen(3)-N-T-7MeW-K(Ac)-Pen(3)-AEF-2Nal-aMeK-K(Ac)-N-t-NMeDTyr-CONH2] (Ac-[Pen]NT[Trp(7-Me)]K(Ac)[Pen][AEF][2Nal][αMeK]K(Ac)N[dT][dNMeY]-NH2; disulfide 1-6 (inferred))
